# Patent US6528655B1, “Aromatic derivatives with HIV integrase inhibitory properties” (Pharmacor, Inc., priority 2000, dated 2003)
# Molecular target: HIV-1 integrase (Human immunodeficiency virus type 1 group M subtype B, UniProt P04585)
# Test: HIV-1 integrase inhibition assay (radiolabeled duplex substrate corresponding to the U5 end of the HIV LTR)
# Format: biochemical
# Details: not given
# Description: For the purpose of Table 1 to 4, the HIV-1 integrase inhibition assay was carried out following a known procedure (Burke, Jr. T. R. et al., J. Med. Chem. 38, 4171-4178 (1995)). A suitable radiolabeled duplex substrate corresponding to the U5 end of the HIV LTR was used.
# For the purposes of Table 1 to 4 the HIV-1 integrase inhibition assay was based on a known procedure (Hazuda, D. J. et al., Nucleic Acids Res. 22 1121-1122 (1994)).
row,Compound,IC50 [µM]
1,"COc1ccc(OC)c(NC(=O)[C@H](CCC(=O)NC(c2ccccc2)(c2ccccc2)c2ccccc2)NC(=O)c2cc3ccccc3[nH]2)c1 [Example 84, N-[Nα-(Indole-2-carbonyl)-Nδ-trityl-L-glutaminyl]-2,5-dimethoxyaniline]",4.1
2,"COc1ccc(OC)c(NC(=O)[C@H](CCC(=O)NC(c2ccccc2)(c2ccccc2)c2ccccc2)NC(=O)c2cc(O)c3cccc(O)c3n2)c1 [Example 85, N-[Nα-(4,8-Dihydroxyquinoline-2-carbonyl)-Nδ-trityl-L-glutaminyl]-2,5-dimethoxyaniline]",2.6
3,"O=C(/C=C/c1c[nH]c2ccccc12)N[C@@H](Cc1cn(C(c2ccccc2)(c2ccccc2)c2ccccc2)cn1)C(=O)NCCc1ccc(O)c(O)c1 [Example 86, N-[Nα-(3-(3′-Indole)acryloyl)-Nτ-trityl-L-histidinyl]dopamine]",2
4,CC(C)(C)OC[C@H](NC(=O)Cc1cccs1)C(=O)NCCc1ccc(O)c(O)c1 [Example 87],> 10
5,"COc1ccc(OC)c(NC(=O)[C@H](CCC(=O)NC(c2ccccc2)(c2ccccc2)c2ccccc2)NC(=O)c2ccc[nH]2)c1 [Example 88, N-[Nα-(Pyrrole-2-carbonyl)-Nδ-trityl-L-glutaminyl]-2,5-dimethoxyaniline]",> 10
6,"Cc1ccc(C(NC(=O)CC[C@H](NC(=O)/C=C/c2ccc(O)c(O)c2)C(=O)Nc2nccs2)(c2ccccc2)c2ccccc2)cc1 [Example 90, N-(Nα-Caffeoyl-Nδ-methyltrityl-L-glutaminyl)thiazole-2-amine]",0.834
7,"COc1ccc(OC)c(NC(=O)[C@H](CCC(N)=O)NC(=O)c2ccc[nH]2)c1 [Example 91, N-(Nα-(Pyrrole-2-carbonyl)-L-glutaminyl]-2,5dimethoxyaniline]",> 10
8,"O=C(O)CC[C@H](NC(=O)c1cc2ccccc2n1Cc1ccc(F)cc1)C(=O)NCc1ccccc1 [Example 94, N-[Nα-(N′-(4-Fluorobenzyl)indole-2-carbonyl)-L-glutamyl]benzylamine]",9.25
9,"CC(C)(C)OC[C@H](NC(=O)c1cc2ccccc2n1Cc1ccc(F)cc1)C(=O)NCCc1ccc(O)c(O)c1 [Example 95, N-[Nα-(N′-(4-Fluorobenzyl)indole-2-carbonyl)-O-tert-butyl-L-seryl]dopamine]",7
10,"O=C(N[C@@H](CO)C(=O)NCCc1ccc(O)c(O)c1)c1cc2ccccc2n1Cc1ccc(F)cc1 [Example 96, N-[Nα-(N′-(4-Fluorobenzyl)indole-2-carbonyl)-L-seryl]dopamine]",> 10
11,"CC(C)(C)OC[C@H](NC(=O)c1ccc(OCc2ccc(F)cc2)c(OCc2ccc(F)cc2)c1)C(=O)NCCc1ccc(O)c(O)c1 [Example 97, N-[Nα-(3,4-di-(4-Fluorobenzyloxy)benzoyl)-O-tert-butyl-L-seryl]dopamine]",2.9
12,"CC(C)(C)OC(=O)CC[C@H](NC(=O)c1ccc(OCc2ccc(F)cc2)c(OCc2ccc(F)cc2)c1)C(=O)NCc1ccccc1 [Example 99, N-[Nα-(3,4-di-(4-Fluorobenzyloxy)benzoyl)-Oδ-tert-butyl-L-glutamyl]benzylamine]",> 10
13,"CC(C)(C)OC(=O)CC[C@H](NC(=O)c1cccn1Cc1ccc(F)cc1)C(=O)NCCc1cccs1 [Example 101, N-[Nα-(N′-(4-Fluorobenzyl)pyrrole-2-carbonyl)-Oδ-tert-butyl-L-glutamyl]-2-(2′-thiophenyl)ethylamine]",> 10
14,"CC(C)(C)OC(=O)CC[C@H](NC(=O)c1cc2ccccc2n1Cc1ccc(F)cc1)C(=O)NCCc1cccs1 [Example 102, N-[Nα-(N′-(4-Fluorobenzyl)indole-2-carbonyl)-Oδ-tert-butyl-L-glutamyl]-2-(2′-thiophenyl)ethylamine]",> 10
15,"O=C(O)CC[C@H](NC(=O)c1cccn1Cc1ccc(F)cc1)C(=O)NCCc1cccs1 [Example 103, N-[Nα-(N′-(4-Fluorobenzyl)pyrrole-2-carbonyl)-L-glutamyl]-2-(2′-thiophenyl)ethylamine]",> 10
16,"O=C(O)CC[C@H](NC(=O)c1cc2ccccc2n1Cc1ccc(F)cc1)C(=O)NCCc1cccs1 [Example 104, N-[Nα-(N′-(4-Fluorobenzyl)indole-2-carbonyl)-L-glutamyl]-2-(2′-thiophenyl)ethylamine]",> 10
17,"CC(C)(C)OC(=O)CC[C@H](NC(=O)c1cc(O)c2cccc(O)c2n1)C(=O)NCCc1cccs1 [Example 105, N-[Nα-(4,8-Dihydroxyquinoline-2-carbonyl)-Oδ-tert-butyl-L-glutamyl]-2-(2′-thiophenyl)ethylamine]",> 10
18,"O=C(O)CC[C@H](NC(=O)c1cc(O)c2cccc(O)c2n1)C(=O)NCCc1cccs1 [Example 106, N-[Nα-(4,8-Dihydroxyquinoline-2-carbonyl)-L-glutamyl]-2-(2′-thiophenyl)ethylamine]",> 10
19,"CC(C)(C)OC(=O)CC[C@H](NC(=O)c1cc(F)ccc1O)C(=O)NCCc1cccs1 [Example 107, N-[Nα-(5-Fluoro-2-hydroxybenzoyl)-Oδ-tert-butyl-L-glutamyl]-2-(2′-thiophenyl)ethylamine]",> 10
20,"O=C(O)CC[C@H](NC(=O)c1cc(F)ccc1O)C(=O)NCCc1cccs1 [Example 108, N-[Nα-(5-Fluoro-2-hydroxybenzoyl)-L-glutamyl]-2-(2′-thiophenyl)ethylamine]",> 10
21,"COc1ccc(NC(=O)[C@H](CCC(=O)NC(c2ccccc2)(c2ccccc2)c2ccccc2)NC(=O)c2ccc(OCc3ccc(F)cc3)c(OCc3ccc(F)cc3)c2)cc1O [Example 111, N-[Nα-(3,4-di-(4-Fluorobenzyloxy)benzoyl)-Nδ-trityl-L-glutaminyl]-3-hydroxy-4-methoxyaniline]",6.1
22,"COc1ccc(NC(=O)[C@H](CCC(=O)NC(c2ccccc2)(c2ccccc2)c2ccccc2)NC(=O)/C=C/c2ccc(OCc3ccc(F)cc3)c(OCc3ccc(F)cc3)c2)cc1O [Example 112, N-[Nα-(3,4-di-(4-Fluorobenzyloxy)caffeoyl)-Nδ-trityl-L-glutaminyl]-3-hydroxy-4-methoxyaniline]",2
23,"COc1ccc(NC(=O)[C@H](CCC(=O)NC(c2ccccc2)(c2ccccc2)c2ccccc2)NC(=O)c2cc3cc(F)ccc3[nH]2)cc1O [Example 113, N-[Nα-(5-Fluoroindole-2-carbonyl)-Nδ-trityl-L-glutaminyl]-3-hydroxy-4-methoxyaniline]",6.5

# Same assay, conditions: Table 2, compounds of formula III′; read-out: IC50
row,Compound,IC50 [µM]
1,"Nα,Nε-di-(3,5-Dihydroxynaphthyl-2-carbonyl)-L-lysine [Example 65]",> 5

# Same assay, conditions: Table 4, compounds of formula I′; read-out: IC50
row,Compound,IC50 [µM]
1,"CC(C)(C)OC[C@H](NC(=O)c1cccn1Cc1ccc(F)cc1)C(=O)NCCc1ccc(O)c(O)c1 [Example 93, N-[Nα-(N′-(4-Fluorobenzyl)pyrrole-2-carbonyl)-O-tert-butyl-L-seryl]dopamine]",> 10
2,"O=C(C=Cc1ccc(OCc2ccc(F)cc2)c(OCc2ccc(F)cc2)c1)NCC(=O)NCCc1cccs1 [Example 98, N-[Nα-(3,4-di-(4-Fluorobenzyloxy)caffeoyl)-glycyl]-2-(2′-thiophenyl)ethylamine]",> 10
3,"O=C(C=Cc1ccc(OCc2ccc(F)cc2)c(OCc2ccc(F)cc2)c1)NCC(=O)NCCc1ccc(O)c(O)c1 [Example 100, N-[Nα-(3,4-di-(4-Fluorobenzyloxy)caffeoyl)-L-glycyl)dopamine]",2.6
4,"COc1ccc(NC(=O)[C@H](CCC(=O)NC(c2ccccc2)(c2ccccc2)c2ccccc2)NC(=O)c2cc3ccccc3n2Cc2ccc(F)cc2)cc1O [Example 109, N-[Nα-(N′-(4-Fluorobenzyl)indole-2-carbonyl)-Nδ-trityl-L-glutaminyl]-3-hydroxy-4-methoxyaniline]",5.3
5,N-[Nα-(N′-(4-Fluorobenzyl)indole-2-carbonyl)-Oδ-tert-butyl-L-glutamyl]benzylamine [Example 89],> 10
